Assay [1] deals with T1, Receptor-interacting serine/threonine-protein kinase 4 (Homo sapiens, UniProt P57078).
T1 sequence (P57078 whole entry): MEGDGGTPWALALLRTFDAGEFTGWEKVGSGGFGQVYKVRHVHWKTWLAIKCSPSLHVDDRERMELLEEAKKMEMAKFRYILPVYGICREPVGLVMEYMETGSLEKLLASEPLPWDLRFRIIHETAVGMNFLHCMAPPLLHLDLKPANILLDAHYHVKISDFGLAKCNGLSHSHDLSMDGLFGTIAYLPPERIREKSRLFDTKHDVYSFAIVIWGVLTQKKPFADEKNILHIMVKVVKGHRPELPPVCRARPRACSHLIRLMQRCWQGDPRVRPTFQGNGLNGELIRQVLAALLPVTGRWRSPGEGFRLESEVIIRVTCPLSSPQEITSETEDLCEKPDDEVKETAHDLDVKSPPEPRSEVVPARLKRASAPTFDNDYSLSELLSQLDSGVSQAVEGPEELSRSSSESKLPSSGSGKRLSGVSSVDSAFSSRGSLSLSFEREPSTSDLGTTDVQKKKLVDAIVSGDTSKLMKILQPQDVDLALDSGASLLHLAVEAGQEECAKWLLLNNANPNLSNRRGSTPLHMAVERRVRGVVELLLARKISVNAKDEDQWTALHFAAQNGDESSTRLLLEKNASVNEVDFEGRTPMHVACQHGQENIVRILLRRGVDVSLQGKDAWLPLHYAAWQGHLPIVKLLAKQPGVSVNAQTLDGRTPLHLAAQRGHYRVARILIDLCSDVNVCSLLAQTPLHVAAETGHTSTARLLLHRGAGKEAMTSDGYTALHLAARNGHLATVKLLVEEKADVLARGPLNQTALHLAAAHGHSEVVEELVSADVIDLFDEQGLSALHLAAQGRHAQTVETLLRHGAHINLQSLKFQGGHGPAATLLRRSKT
As to the kind of experiment: Inhibition of N-terminal polyHis-tagged human RIPK4 (1 to 321 residues) expressed in Sf9 cells using MBP as substrate preincubated for 15 mins followed by ATP addition measured after 90 mins by ADP-Glo assay.

Assay [2] concerns the target T2, Receptor-interacting serine/threonine-protein kinase 2 (Homo sapiens, UniProt O43353). As to the kind of experiment: Inhibition of RIPK2-mediated NF-kappaB signalling in C14-TriLAN-Gly-treated human THP-1 cells preincubated for 30 mins followed by C14-TriLAN-Gly addition measured after 24 hrs by luminescence based assay. It counts as cell-based.
Assay [3] addresses T3, Receptor-interacting serine/threonine-protein kinase 1 (Homo sapiens, UniProt Q13546).
T3 sequence (Q13546 whole entry): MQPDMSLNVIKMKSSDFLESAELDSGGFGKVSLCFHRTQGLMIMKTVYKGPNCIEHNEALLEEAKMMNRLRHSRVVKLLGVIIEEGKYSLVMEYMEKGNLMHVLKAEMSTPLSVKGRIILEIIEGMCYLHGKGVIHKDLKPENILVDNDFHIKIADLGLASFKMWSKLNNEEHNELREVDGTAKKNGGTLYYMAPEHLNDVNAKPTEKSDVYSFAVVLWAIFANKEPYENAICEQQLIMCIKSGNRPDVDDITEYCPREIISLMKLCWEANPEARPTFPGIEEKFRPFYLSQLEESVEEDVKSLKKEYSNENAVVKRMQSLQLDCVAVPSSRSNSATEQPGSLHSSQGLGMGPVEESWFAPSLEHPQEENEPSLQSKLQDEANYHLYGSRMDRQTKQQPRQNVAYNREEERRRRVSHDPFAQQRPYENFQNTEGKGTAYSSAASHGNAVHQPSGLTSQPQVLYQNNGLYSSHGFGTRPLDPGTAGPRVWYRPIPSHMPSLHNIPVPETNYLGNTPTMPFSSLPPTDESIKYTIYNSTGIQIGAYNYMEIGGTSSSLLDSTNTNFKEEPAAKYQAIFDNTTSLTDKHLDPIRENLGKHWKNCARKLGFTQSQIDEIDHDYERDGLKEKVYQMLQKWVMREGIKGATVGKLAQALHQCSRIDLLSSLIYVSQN
Briefly: Inhibition of N-terminal polyHis-tagged human RIPK1 (1 to 321 residues) expressed in Sf9 cells using MBP as substrate preincubated for 15 mins followed by ATP addition measured after 90 mins by ADP-Glo assay.

For assay [4], the target named is T2, Receptor-interacting serine/threonine-protein kinase 2. Briefly: Inhibition of RIPK2-mediated NF-kappaB signalling in MDP-treated human THP-1 cells preincubated for 30 mins followed by MDP addition measured after 24 hrs by luminescence based assay. In kind it is cell-based.
The target of assay [5] is T4, Receptor-interacting serine/threonine-protein kinase 3 (Homo sapiens, UniProt Q9Y572). As to the kind of experiment: Inhibition of N-terminal polyHis-tagged human RIPK3 (1 to 307 residues) expressed in Sf9 cells using MBP as substrate upto 10 uM preincubated for 15 mins followed by ATP addition measured after 90 mins by ADP-Glo assay. To be noted: time 105.0 min.
Target sequence in this assay (Q9Y572 whole entry, looked up, the tested form may be a part): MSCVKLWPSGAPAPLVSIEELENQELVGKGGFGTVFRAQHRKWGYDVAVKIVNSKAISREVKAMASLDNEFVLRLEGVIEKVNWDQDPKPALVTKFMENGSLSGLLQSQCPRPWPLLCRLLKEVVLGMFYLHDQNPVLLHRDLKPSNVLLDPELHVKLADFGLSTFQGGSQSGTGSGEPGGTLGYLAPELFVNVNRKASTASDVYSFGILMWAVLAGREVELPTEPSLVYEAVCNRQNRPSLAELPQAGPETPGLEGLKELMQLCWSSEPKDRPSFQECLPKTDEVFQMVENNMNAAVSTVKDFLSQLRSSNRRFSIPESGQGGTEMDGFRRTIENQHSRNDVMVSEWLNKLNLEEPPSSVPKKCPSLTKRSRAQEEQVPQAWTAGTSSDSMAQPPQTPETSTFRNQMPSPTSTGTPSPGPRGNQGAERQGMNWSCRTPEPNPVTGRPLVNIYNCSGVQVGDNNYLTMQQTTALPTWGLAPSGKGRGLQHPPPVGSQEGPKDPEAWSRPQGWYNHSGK
Assay [6] has as its target T2, Receptor-interacting serine/threonine-protein kinase 2. Briefly: Inhibition of N-terminal polyHis-tagged human RIPK2 (8 to 310 residues) expressed in Sf9 cells using MBP as substrate preincubated for 15 mins followed by ATP addition measured after 90 mins by ADP-Glo assay.
Assay [7] has as its target T4, Receptor-interacting serine/threonine-protein kinase 3. Briefly: Inhibition of N-terminal polyHis-tagged human RIPK3 (1 to 307 residues) expressed in Sf9 cells using MBP as substrate preincubated for 15 mins followed by ATP addition measured after 90 mins by ADP-Glo assay.
Target sequence in this assay (Q9Y572 whole entry, the tested form may be a part): as the sequence (Q9Y572 whole entry, looked up, the tested form may be a part) above
Assay [8] deals with T2, Receptor-interacting serine/threonine-protein kinase 2. Briefly: Inhibition of RIPK2-mediated NF-kappaB signalling in MDP-treated human THP-1 cells upto 10 uM preincubated for 30 mins followed by MDP addition measured after 24 hrs by luminescence based assay. It counts as cell-based.
The target is the same in assay [9]. As to the kind of experiment: Inhibition of RIPK2-mediated NF-kappaB signalling in C14-TriLAN-Gly-treated human THP-1 cells upto 10 uM preincubated for 30 mins followed by C14-TriLAN-Gly addition measured after 24 hrs by luminescence based assay. It counts as cell-based.

pIC50: −log10 of the molar value. Activity calls are given as the source filed them. The calls are words filed in the database; no cut-off is given here. Bounds are passed on as bounds.

T2 sequence (O43353 whole entry): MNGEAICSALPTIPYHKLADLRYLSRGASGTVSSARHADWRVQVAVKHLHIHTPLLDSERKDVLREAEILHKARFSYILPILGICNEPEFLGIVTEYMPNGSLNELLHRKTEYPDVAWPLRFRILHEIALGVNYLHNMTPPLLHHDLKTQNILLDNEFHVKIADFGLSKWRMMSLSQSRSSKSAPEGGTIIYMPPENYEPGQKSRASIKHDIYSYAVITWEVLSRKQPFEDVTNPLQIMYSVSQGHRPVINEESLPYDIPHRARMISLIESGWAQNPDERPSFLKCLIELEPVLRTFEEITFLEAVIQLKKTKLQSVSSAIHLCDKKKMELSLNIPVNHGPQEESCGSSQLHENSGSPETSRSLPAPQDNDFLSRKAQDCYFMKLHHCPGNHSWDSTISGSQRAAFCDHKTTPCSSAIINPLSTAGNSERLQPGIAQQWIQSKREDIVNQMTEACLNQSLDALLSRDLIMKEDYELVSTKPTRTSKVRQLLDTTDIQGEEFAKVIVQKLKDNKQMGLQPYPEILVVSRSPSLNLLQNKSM

Consider `Cn1cnc(-c2cc3c(Nc4ccc5scnc5c4)ncnc3cc2Cl)c1`, for which the negative logarithm of the IC50 (pIC50) in assay [1] is less than 4.30; in assay [2] it was 6.68; in [3], less than 4.30; in [4], 6.85; in [6], 8.00. Also, the inhibition result in assay [5] is “inactive”.

Regarding `Cc1cscc1-c1ccc2ncnc(Nc3ccc4scnc4c3)c2c1`, the pIC50 in assay [1] is less than 4.30; in [2], 5.35; in assay [3], less than 4.30; in assay [4] it was 5.81; in assay [7], 5.72; in assay [6], 7.54.

As for `Cc1ncc(-c2ccc3ncnc(Nc4ccc5scnc5c4)c3c2)s1`, the negative-log IC50 (pIC50) in assay [1] was less than 4.30; in assay [2], 6.87; in [3], less than 4.30; in assay [4] it was 6.97; in assay [7] it was 5.22; in [6], 8.40.

Turning to `Cn1cnc(-c2ccc3ncnc(Nc4ccc5scnc5c4)c3c2)c1`, the pIC50 in assay [1] is less than 4.30; in assay [2] it was 6.68; in assay [3] it was less than 4.30; in [4] it was 7.02; in [6] it was 7.96. For the same molecule, the inhibition result in [5] is “inactive”.

Consider `OCc1cccc(-c2cc3ncnc(Nc4ccc5scnc5c4)c3cc2-c2cccs2)c1`, for which the pIC50 was less than 4.30 in [1]; 6.36 in assay [2]; less than 4.30 in assay [3]; 6.40 in assay [4]; 6.26 in [7]; 8.30 in assay [6].

Turning to `Cc1ncc(-c2cc3c(Nc4ccc5scnc5c4)ncnc3cc2Cl)s1`, the negative logarithm of the IC50 (pIC50) in assay [1] was less than 4.30; in assay [2], 6.81; in [3], less than 4.30; in assay [4], 6.99; in assay [6], 8.30. Also, the inhibition entry in assay [5] was “inactive”.

For `CC(C)(C)S(=O)(=O)c1cc2c(Nc3ccc4scnc4c3)ncnc2cc1OCCOP(=O)(O)O`, the figures for the pIC50 in assay [2], in assay [4] and in assay [6] were 7.04, 7.42 and 8.40, respectively. Also, the inhibition entry in assay [5] was “inactive”.

`Cn1cc(-c2cc3c(Nc4ccc5scnc5c4)ncnc3cc2Cl)cn1`: the pIC50 was less than 4.30 in assay [1]; 7.17 in [2]; less than 4.30 in [3]; 7.20 in assay [4]; 8.40 in [6]. Moreover, the inhibition entry in assay [5] was “inactive”.

In the case of `c1ccc(-c2ccc3ncnc(Nc4ccc5scnc5c4)c3c2)cc1`, the negative logarithm of the IC50 (pIC50) in assay [1] is less than 4.30; in [2], 5.36; in [3] it was less than 4.30; in assay [4] it was 5.67; in assay [7], 5.44; in assay [6] it was 7.74.

Turning to `Cc1ncc(-c2ccc3ncnc(Nc4ccc5scnc5c4)c3c2)n1C`, the negative logarithm of the IC50 (pIC50) in assay [1] was less than 4.30; in assay [2] it was 6.84; in [3], less than 4.30; in assay [4] it was 6.62; in assay [6], 8.05. For the same molecule, in [5], the inhibition result was “inactive”.

On to `Cc1ccsc1-c1ccc2ncnc(Nc3ccc4scnc4c3)c2c1`, for which the negative-log IC50 (pIC50) in [1] is less than 4.30; in assay [2], 6.36; in [3], less than 4.30; in assay [4], 6.44; in assay [7], 6.41; in assay [6] it was 8.22.

In the case of `Cn1nc(C(F)(F)F)cc1-c1cc2c(Nc3ccc4scnc4c3)ncnc2cc1Cl`, the pIC50 is less than 4.30 in [1]; 5.34 in [2]; less than 4.30 in assay [3]; 5.47 in [4]; 5.59 in [7]; 6.49 in assay [6].

Turning to `Cc1csc(-c2ccc3ncnc(Nc4ccc5scnc5c4)c3c2)n1`, the pIC50 was less than 4.30 in assay [1]; 5.56 in [2]; less than 4.30 in assay [3]; 6.42 in assay [7]; 8.30 in [6]. The IC50 result in assay [8] is “Not Active”.

Take `Cn1cc(-c2ccc3ncnc(Nc4ccc5scnc5c4)c3c2)cn1`: the negative logarithm of the IC50 (pIC50) in assay [1] was less than 4.30; in [2] it was 7.33; in [3] it was less than 4.30; in assay [4], 7.42; in [7] it was 5.82; in [6], 8.40.

Turning to `Cn1cccc1-c1ccc2ncnc(Nc3ccc4scnc4c3)c2c1`, the pIC50 in assay [1] was less than 4.30; in [2] it was 6.14; in [3], less than 4.30; in [4], 6.28; in [7], 5.54; in assay [6], 7.66.

Take `Cc1ncc(-c2cc3c(Nc4ccc5scnc5c4)ncnc3cc2Cl)n1C`: the negative-log IC50 (pIC50) in assay [1] is less than 4.30; in [2] it was 6.72; in assay [3] it was less than 4.30; in assay [4], 7.02; in assay [6], 8.00. In addition, the inhibition entry in [5] is “inactive”.

As to `Cn1nccc1-c1cc2c(Nc3ccc4scnc4c3)ncnc2cc1Cl`, the negative-log IC50 (pIC50) in assay [1] was less than 4.30; in assay [2] it was 6.50; in assay [3], less than 4.30; in [4] it was 6.50; in assay [7], 5.80; in assay [6] it was 7.74.

Regarding `c1nc(Nc2ccc3scnc3c2)c2cc(-c3cc[nH]n3)ccc2n1`, the pIC50 was less than 4.30 in [1]; 6.94 in assay [2]; less than 4.30 in assay [3]; 7.17 in assay [4]; 5.68 in [7]; 8.22 in [6].

As for `Cc1cscc1-c1cc2c(Nc3ccc4scnc4c3)ncnc2cc1Cl`, the pIC50 in assay [1] was less than 4.30; in assay [3] it was less than 4.30; in [4] it was 5.68; in assay [6], 6.98. Besides, in assay [5], the inhibition result is “inactive”. In addition, the IC50 result in assay [9] is listed as “Not Active”.

For the molecule `CC(C)S(=O)(=O)c1ccc2nccc(Nc3ccc4scnc4c3)c2c1`, the results for the pIC50 in assay [2], in assay [4] and in assay [6] were 8.05, 8.40 and 8.70, respectively.

`Cn1ccnc1-c1ccc2ncnc(Nc3ccc4scnc4c3)c2c1`: the pIC50 in assay [1] was less than 4.30; in [2], 6.62; in assay [3], less than 4.30; in assay [4] it was 6.56; in [6], 7.92. In addition, the inhibition entry in [5] is “inactive”.

`Clc1cc2ncnc(Nc3ccc4scnc4c3)c2cc1-c1cc[nH]n1`: the pIC50 in assay [1] is less than 4.30; in assay [2] it was 6.81; in assay [3], less than 4.30; in assay [6], 8.00. In addition, in [5], the inhibition result is “inactive”. The IC50 result in [8] is “Not Active”.

The values are drawn from ChEMBL document CHEMBL5625233, “Exploring positions 6 and 7 of a quinazoline-based scaffold leads to changes in selectivity and potency towards RIPK2/3 kinases” (Eur J Med Chem, 2023).
